Assay results published in patent US11554182B2, “Macrocyclic complexes of alpha-emitting radionuclides and their use in targeted radiotherapy of cancer” (CORNELL UNIVERSITY, priority 2017, dated 2023).

Experiment: In vivo biodistribution of ^225Ac complexes after intravenous injection
Parameters: species or system C57BL/6 mice
Procedure: In Vivo Biodistribution of ^225Ac Complexes of Macropa and DOTA. All experiments were approved by the Institutional Animal Care Committee (IACC) of the University of British Columbia and were performed in accordance with the Canadian Council on Animal Care Guidelines. A total of 9 female C57BL/6 mice (6-8 weeks old, 20-25 g) were used for the biodistribution study of each radiometal complex, n=3 for each time point.
Macropa (100 μL of a 1 mg/mL solution in NH4OAc) was diluted with 387 μL of NH4OAc (1 M, pH 7), and an aliquot (203 μL) of ^225Ac(NO3)3 (˜157 kBq) was then added; the pH of this solution was adjusted to 6.5-7 by the addition of 1 M NaOH (210 μL, trace metal grade). After 5 min at ambient temperature, the reaction solution was analyzed by TLC (0.4 M pH 4 sodium citrate as the eluent), which confirmed >95% radiochemical yield. The reaction was allowed to proceed overnight, and the radiochemical yield was again confirmed to be >95% the following morning. At this time, mice were anesthetized by 2% isoflurane, and approximately 100 μL (10-15 kBq) of the [^225Ac(macropa)]^+ complex were injected into the tail vein of each mouse. After injection, mice were allowed to recover and roam freely in their cages, and were euthanized by CO2 inhalation at 15 min, 1 h, or 5 h (n=3 at each time point) post-injection. Blood was collected by cardiac puncture and placed into an appropriate test tube for scintillation counting. Tissues collected included heart, liver, kidneys, lungs, small intestine, large intestine, brain, bladder, spleen, stomach, pancreas, bone, thyroid, tail, urine, and feces. Tissues were weighed and then counted with a calibrated gamma counter (Packard, Cobra II model 5002) using three energy windows: 60-120 keV (window A), 180-260 keV (window B), and 400-480 keV (window C). Counting was performed both immediately after sacrifice and after 7 days; counts were decay corrected from the time of injection and then converted to the percentage of injected dose (% ID) per gram of tissue (% ID/g). No differences were noted between the data; therefore, the biodistributions are reported using the data acquired immediately using window A.
The biodistribution studies of [^225Ac(DOTA)]^− and ^225Ac(NO3)3 were carried out as described above for [^225Ac(macropa)]^+, with the following modifications. [^225Ac(DOTA)]^− was prepared by adding ^225Ac(NO3)3 (338 μL, 1.1 MBq) to a solution of DOTA (100 μg, 20 mg/mL in H2O) in NH4OAc (467 μL, 0.15 M, pH 7). The pH of the solution was adjusted to 7 using NH4OAc (150 μL, 1 M, pH 7) and the solution was heated at 85° C. for 45 min. RCY>99% was confirmed by TLC as described above. [^225Ac(DOTA)]^− was diluted with saline to a final concentration of 0.05 MBq/100 μL, and 100 μL were injected into each mouse. ^225Ac(NO3)3 (˜58 μL, 0.4 MBq) was diluted and injected in the same manner as [^225Ac(DOTA)]^−. One mouse that was to be euthanized at the 5 h time point in the [^225Ac(DOTA)]^− study died shortly after injection. In the same manner, one mouse that was to be euthanized at the 1 h time point in the ^225Ac(NO3)3 study died.
The in vivo stability [^225Ac(macropa)]^+ was examined by comparing its biodistribution to those of ^225Ac(NO3)3 and [^225Ac(DOTA)]^−. C57BL/6 mice were injected via tail vein with 10-50 kBq of each radiometal complex and were sacrificed after 15 min, 1 h, or 5 h. The amount of ^225Ac retained in each organ was quantified by gamma counting and reported as the percent of injected dose per gram of tissue (% ID/g). The results of these studies are compiled in Tables 1-3. Inadequate stability of an ^225Ac complex leading to the loss of radioisotope in vivo is manifested by the accumulation of ^225Ac in the liver, spleen, and bone of mice.^[11,12,32] […] The biodistribution profile of [^225Ac(macropa)]^+ (FIG. 3B) differs markedly from that of ^225Ac(NO3)3. […]

[1] = 15 min after i.v. injection, energy window A (60-120 keV)
[2] = 15 min after i.v. injection, energy window B (180-260 keV)
[3] = 15 min after i.v. injection, energy window C (400-480 keV)
[4] = 1 h after i.v. injection, energy window A (60-120 keV)
[5] = 1 h after i.v. injection, energy window B (180-260 keV)
[6] = 1 h after i.v. injection, energy window C (400-480 keV)
[7] = 5 h after i.v. injection, energy window A (60-120 keV)
[8] = 5 h after i.v. injection, energy window B (180-260 keV)

O=C([O-])CN1CCN(CC(=O)[O-])CCN(CC(=O)[O-])CCN(CC(=O)[O-])CC1.[225Ac+3] [[^225Ac(DOTA)]^−]
% ID/g in bladder [1]: 48.2703 % ID/g
% ID/g in blood [1]: 5.2881 % ID/g
% ID/g in bone (femur + joint) [1]: 2.6298 % ID/g
% ID/g in brain [1]: 0.2655 % ID/g
% ID/g in feces [1]: 6.2730 % ID/g
% ID/g in heart [1]: 2.3335 % ID/g
% ID/g in kidneys [1]: 27.6566 % ID/g
% ID/g in large intestines [1]: 2.3348 % ID/g
% ID/g in liver [1]: 2.2520 % ID/g
% ID/g in lungs [1]: 5.7556 % ID/g
% ID/g in pancreas [1]: 1.5090 % ID/g
% ID/g in small intestines [1]: 2.6370 % ID/g
% ID/g in spleen [1]: 2.5905 % ID/g
% ID/g in stomach [1]: 2.7440 % ID/g
% ID/g in tail [1]: 8.8606 % ID/g
% ID/g in thyroids [1]: −5.7725 % ID/g
% ID/g in urine [1]: 1467.9186 % ID/g
% ID/g in bladder [2]: 54.4696 % ID/g
% ID/g in blood [2]: 5.6357 % ID/g
% ID/g in bone (femur + joint) [2]: 3.0357 % ID/g
% ID/g in brain [2]: 0.2735 % ID/g
% ID/g in feces [2]: 1.0222 % ID/g
% ID/g in heart [2]: 2.7276 % ID/g
% ID/g in kidneys [2]: 28.0858 % ID/g
% ID/g in large intestines [2]: 2.5365 % ID/g
% ID/g in liver [2]: 2.1817 % ID/g
% ID/g in lungs [2]: 6.0147 % ID/g
% ID/g in pancreas [2]: 1.4929 % ID/g
% ID/g in small intestines [2]: 2.5009 % ID/g
% ID/g in spleen [2]: 2.9076 % ID/g
% ID/g in stomach [2]: 2.7311 % ID/g
% ID/g in tail [2]: 9.4746 % ID/g
% ID/g in thyroids [2]: 1.6601 % ID/g
% ID/g in urine [2]: 1635.4394 % ID/g
% ID/g in bladder [3]: 76.0987 % ID/g
% ID/g in blood [3]: 7.2941 % ID/g
% ID/g in bone (femur + joint) [3]: 4.4224 % ID/g
% ID/g in brain [3]: 0.1588 % ID/g
% ID/g in feces [3]: 1.5693 % ID/g
% ID/g in heart [3]: 2.5579 % ID/g
% ID/g in kidneys [3]: 40.4489 % ID/g
% ID/g in large intestines [3]: 3.8419 % ID/g
% ID/g in liver [3]: 2.9046 % ID/g
% ID/g in lungs [3]: 7.3872 % ID/g
% ID/g in pancreas [3]: 1.0290 % ID/g
% ID/g in small intestines [3]: 3.8916 % ID/g
% ID/g in spleen [3]: 1.5598 % ID/g
% ID/g in stomach [3]: 3.2425 % ID/g
% ID/g in tail [3]: 13.4731 % ID/g
% ID/g in thyroids [3]: −109.5394 % ID/g
% ID/g in urine [3]: 2691.0615 % ID/g
% ID/g in bladder [4]: 4.7351 % ID/g
% ID/g in blood [4]: 0.1144 % ID/g
% ID/g in bone (femur + joint) [4]: 0.4487 % ID/g
% ID/g in brain [4]: 0.0224 % ID/g
% ID/g in feces [4]: 0.2035 % ID/g
% ID/g in heart [4]: 0.1012 % ID/g
% ID/g in kidneys [4]: 1.4020 % ID/g
% ID/g in large intestines [4]: 0.1229 % ID/g
% ID/g in liver [4]: 0.2715 % ID/g
% ID/g in lungs [4]: 0.1555 % ID/g
% ID/g in pancreas [4]: 0.0743 % ID/g
% ID/g in small intestines [4]: 1.7207 % ID/g
% ID/g in spleen [4]: 0.0938 % ID/g
% ID/g in stomach [4]: 0.1367 % ID/g
% ID/g in tail [4]: 0.8091 % ID/g
% ID/g in thyroids [4]: 2.3564 % ID/g
% ID/g in urine [4]: 158.6102 % ID/g
% ID/g in bladder [5]: 4.7141 % ID/g
% ID/g in blood [5]: 0.1127 % ID/g
% ID/g in bone (femur + joint) [5]: 0.4126 % ID/g
% ID/g in brain [5]: 0.0248 % ID/g
% ID/g in feces [5]: 0.2349 % ID/g
% ID/g in heart [5]: 0.1378 % ID/g
% ID/g in kidneys [5]: 1.2560 % ID/g
% ID/g in large intestines [5]: 0.0813 % ID/g
% ID/g in liver [5]: 0.2672 % ID/g
% ID/g in lungs [5]: 0.1946 % ID/g
% ID/g in pancreas [5]: 0.0746 % ID/g
% ID/g in small intestines [5]: 1.8809 % ID/g
% ID/g in spleen [5]: 0.0825 % ID/g
% ID/g in stomach [5]: 0.1379 % ID/g
% ID/g in tail [5]: 0.8973 % ID/g
% ID/g in thyroids [5]: 2.6514 % ID/g
% ID/g in urine [5]: 159.1628 % ID/g
% ID/g in bladder [6]: 6.9149 % ID/g
% ID/g in blood [6]: 0.1102 % ID/g
% ID/g in bone (femur + joint) [6]: 0.5654 % ID/g
% ID/g in brain [6]: 0.0380 % ID/g
% ID/g in feces [6]: 0.4091 % ID/g
% ID/g in heart [6]: 0.2857 % ID/g
% ID/g in kidneys [6]: 1.4787 % ID/g
% ID/g in large intestines [6]: 0.1381 % ID/g
% ID/g in liver [6]: 0.2841 % ID/g
% ID/g in lungs [6]: 0.2551 % ID/g
% ID/g in pancreas [6]: 0.1730 % ID/g
% ID/g in small intestines [6]: 2.0201 % ID/g
% ID/g in spleen [6]: 0.2228 % ID/g
% ID/g in stomach [6]: 0.1720 % ID/g
% ID/g in tail [6]: 1.0280 % ID/g
% ID/g in thyroids [6]: 3.5247 % ID/g
% ID/g in urine [6]: 177.6788 % ID/g
% ID/g in bladder [7]: 0.3551 % ID/g
% ID/g in blood [7]: 0.0140 % ID/g
% ID/g in bone (femur + joint) [7]: 0.2063 % ID/g
% ID/g in brain [7]: 0.0213 % ID/g
% ID/g in feces [7]: 5.5318 % ID/g
% ID/g in heart [7]: 0.0664 % ID/g
% ID/g in kidneys [7]: 0.6172 % ID/g
% ID/g in large intestines [7]: 0.2026 % ID/g
% ID/g in liver [7]: 0.1010 % ID/g
% ID/g in lungs [7]: 0.0390 % ID/g
% ID/g in pancreas [7]: 0.0677 % ID/g
% ID/g in small intestines [7]: 0.0967 % ID/g
% ID/g in spleen [7]: 0.1380 % ID/g
% ID/g in stomach [7]: 0.0852 % ID/g
% ID/g in tail [7]: 0.3057 % ID/g
% ID/g in thyroids [7]: 3.6425 % ID/g
% ID/g in urine [7]: 1.1612 % ID/g
% ID/g in bladder [8]: 0.7521 % ID/g
% ID/g in blood [8]: 0.0292 % ID/g
% ID/g in bone (femur + joint) [8]: 0.1478 % ID/g
% ID/g in brain [8]: 0.0513 % ID/g
% ID/g in feces [8]: 3.3534 % ID/g
% ID/g in heart [8]: 0.0879 % ID/g
% ID/g in kidneys [8]: 0.6718 % ID/g
% ID/g in large intestines [8]: 0.2527 % ID/g
% ID/g in liver [8]: 0.2712 % ID/g
% ID/g in lungs [8]: 0.1289 % ID/g
% ID/g in pancreas [8]: 0.1266 % ID/g
% ID/g in small intestines [8]: 0.2065 % ID/g
% ID/g in spleen [8]: 0.0834 % ID/g
% ID/g in stomach [8]: 0.1789 % ID/g
% ID/g in tail [8]: 0.1634 % ID/g
% ID/g in thyroids [8]: 16.2357 % ID/g
% ID/g in urine [8]: 3.6967 % ID/g
